Test results: PMC10746543, “Design principles for cyclin K molecular glue degraders” (Nature Chemical Biology, 2023)
“And” between values parts separate entries of the source, which are not always exact repeats. Equal values may be shown once. Read-outs that look alike come from different tables or passages of the source.

How the values were obtained:
CDK12–cyclin K and DDB1 = target: T1, CDK12–cyclin K and DDB1 (Homo sapiens, UniProt Q16531+Q9NYV4, K965R); test: TR-FRET ternary complex formation assay (compound titration); format: binding
T1 construct: His6–CDK12 (a.a. 713–1,052); full-length or beta-propeller B domain deletion (ΔBPB: a.a. 396–705 deleted) constructs of His6–DDB1ΔBPB, StrepII–Avi–DDB1, or His6–Spy–DDB1; made in house; host or cells: Trichoplusia ni High Five insect cells (baculovirus)
Outline: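 Read-out used a 70 μs delay to cut background fluorescence; TR-FRET signal taken as the 520 nm/490 nm emission ratio.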

CDK12–cyclin K = CDK12–cyclin K (Homo sapiens, UniProt Q9NYV4); test: Lanthascreen kinase binding assay, CDK12; details: for Lanthascreen raw signal, sheet CDK12: duplicates
Procedure: Lanthascreen experiments were performed using commercially available reagents (Thermo Fisher) and according to the manufacturer’s instructions.

[1] = in vitro complex formation, 50 nM CDK12–cyclin K, 100 nM DDB1, text and figures, read-out: TR-FRET EC50
[2] = source data sheet correlations, read-out: TR-FRET EC50
[3] = Supplementary Table 2, read-out: Lanthascreen IC50 [nM] CDK12

Sequence of CDK12–cyclin K (Q9NYV4 713-1052): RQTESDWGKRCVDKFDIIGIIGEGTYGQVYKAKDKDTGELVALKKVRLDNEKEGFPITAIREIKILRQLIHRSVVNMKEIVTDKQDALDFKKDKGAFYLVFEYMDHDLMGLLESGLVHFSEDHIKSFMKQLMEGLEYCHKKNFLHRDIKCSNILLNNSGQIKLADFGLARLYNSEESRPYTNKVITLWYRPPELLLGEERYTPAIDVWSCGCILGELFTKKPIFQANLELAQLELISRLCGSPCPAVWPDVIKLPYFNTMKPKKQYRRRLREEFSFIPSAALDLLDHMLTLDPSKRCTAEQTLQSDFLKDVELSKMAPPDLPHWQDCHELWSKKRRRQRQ
Sequence of CDK12–cyclin K (O75909 1-267 partner limits assumed): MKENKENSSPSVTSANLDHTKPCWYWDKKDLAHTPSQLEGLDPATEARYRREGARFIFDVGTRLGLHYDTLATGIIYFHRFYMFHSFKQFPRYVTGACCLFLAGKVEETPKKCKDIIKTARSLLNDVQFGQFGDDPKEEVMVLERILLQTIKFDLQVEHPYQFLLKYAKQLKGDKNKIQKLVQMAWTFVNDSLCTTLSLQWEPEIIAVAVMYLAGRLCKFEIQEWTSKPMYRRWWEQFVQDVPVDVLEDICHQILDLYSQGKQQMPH
T1 sequence (Q9NYV4 713-1052 K965R): as the sequence (Q9NYV4 713-1052) above, with K253R counted along it
T1 sequence (O75909 1-267 partner): as the sequence (O75909 1-267 partner limits assumed) above
T1 sequence (Q16531 whole entry): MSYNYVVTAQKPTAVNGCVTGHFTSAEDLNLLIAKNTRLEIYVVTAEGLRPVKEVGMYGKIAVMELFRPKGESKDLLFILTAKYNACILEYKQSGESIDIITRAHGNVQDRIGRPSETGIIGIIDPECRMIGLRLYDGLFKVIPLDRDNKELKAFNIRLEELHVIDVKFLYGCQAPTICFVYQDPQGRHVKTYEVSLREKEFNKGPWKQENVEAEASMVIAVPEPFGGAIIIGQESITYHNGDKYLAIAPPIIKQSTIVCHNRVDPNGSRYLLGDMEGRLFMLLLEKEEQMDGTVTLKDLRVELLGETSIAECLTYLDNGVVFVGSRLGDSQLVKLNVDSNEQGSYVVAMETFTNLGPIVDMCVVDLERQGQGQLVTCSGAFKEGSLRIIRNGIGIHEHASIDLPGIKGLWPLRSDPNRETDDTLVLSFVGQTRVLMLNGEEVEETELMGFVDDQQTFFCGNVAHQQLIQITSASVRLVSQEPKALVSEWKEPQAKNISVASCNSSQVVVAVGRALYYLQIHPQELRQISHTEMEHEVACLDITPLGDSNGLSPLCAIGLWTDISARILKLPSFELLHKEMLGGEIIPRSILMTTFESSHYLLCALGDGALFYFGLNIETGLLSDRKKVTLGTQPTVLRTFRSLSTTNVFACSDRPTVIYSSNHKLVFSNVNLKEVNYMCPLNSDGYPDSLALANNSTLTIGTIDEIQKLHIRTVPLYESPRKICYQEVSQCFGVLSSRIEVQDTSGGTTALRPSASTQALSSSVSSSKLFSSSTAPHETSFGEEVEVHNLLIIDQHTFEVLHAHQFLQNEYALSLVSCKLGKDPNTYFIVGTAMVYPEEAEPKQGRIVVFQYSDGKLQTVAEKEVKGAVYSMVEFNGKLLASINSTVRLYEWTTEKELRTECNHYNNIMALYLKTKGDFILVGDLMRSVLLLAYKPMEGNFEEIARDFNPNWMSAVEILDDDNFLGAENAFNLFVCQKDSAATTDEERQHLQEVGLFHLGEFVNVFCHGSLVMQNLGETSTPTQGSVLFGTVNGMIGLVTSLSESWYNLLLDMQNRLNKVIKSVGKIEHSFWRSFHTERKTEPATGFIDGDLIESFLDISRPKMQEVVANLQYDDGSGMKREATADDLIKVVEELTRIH

SMILES: Cc1cc2nc(CNc3nc(N4CCN(C)CC4)nc4c(Br)cnn34)[nH]c2cc1C [DS73, reference compound]
- TR-FRET signal at compound concentration 0.468 nM (CDK12–cyclin K and DDB1; compound concentration 0.468 nM, raw replicate titration data): 0.2078 and 0.3464 and 0.3268 and 0.2028
- TR-FRET signal at compound concentration 2.16 nM (CDK12–cyclin K and DDB1; compound concentration 2.16 nM, raw replicate titration data): 0.3181 and 0.4574 and 0.408 and 0.306
- TR-FRET signal at compound concentration 3.6 nM (CDK12–cyclin K and DDB1; compound concentration 3.6 nM, raw replicate titration data): 0.571 and 0.665 and 0.6145 and 0.5357
- TR-FRET signal at compound concentration 7.92001 nM (CDK12–cyclin K and DDB1; compound concentration 7.92001 nM, raw replicate titration data): 1.164 and 1.12 and 0.9555 and 1.048
- TR-FRET signal at compound concentration 15.84 nM (CDK12–cyclin K and DDB1; compound concentration 15.84 nM, raw replicate titration data): 2.581 and 2.125 and 1.889 and 2.1704
- TR-FRET signal at compound concentration 30.96 nM (CDK12–cyclin K and DDB1; compound concentration 30.96 nM, raw replicate titration data): 3.773 and 3.741 and 3.496 and 3.714
- TR-FRET signal at compound concentration 62.6401 nM (CDK12–cyclin K and DDB1; compound concentration 62.6401 nM, raw replicate titration data): 3.949 and 4.21 and 4.046 and 3.965
- TR-FRET signal at compound concentration 125.28 nM (CDK12–cyclin K and DDB1; compound concentration 125.28 nM, raw replicate titration data): 3.981 and 4.358 and 4.135 and 3.99
- TR-FRET signal at compound concentration 244.8 nM (CDK12–cyclin K and DDB1; compound concentration 244.8 nM, raw replicate titration data): 3.942 and 4.1851 and 4.076 and 4.006
- TR-FRET signal at compound concentration 993.601 nM (CDK12–cyclin K and DDB1; compound concentration 993.601 nM, raw replicate titration data): 4.043 and 4.296 and 4.229 and 3.955
- TR-FRET signal at compound concentration 2001.6 nM (CDK12–cyclin K and DDB1; compound concentration 2001.6 nM, raw replicate titration data): 4.148 and 4.166 and 4.035 and 3.981
- EC50 (CDK12–cyclin K and DDB1; [1]): 0.015 ± 0.001 µM
- EC50 (CDK12–cyclin K and DDB1; [2]): 0.0153 µM
- IC50 (CDK12–cyclin K; [3]): 25 nM
- Lanthascreen raw signal, sheet CDK12 (CDK12–cyclin K; compound 1.02544 nM, series r1): 0.01046 and 0.009798
- Lanthascreen raw signal, sheet CDK12 (CDK12–cyclin K; compound 3.15521 nM, series r1): 0.009054 and 0.008698
- Lanthascreen raw signal, sheet CDK12 (CDK12–cyclin K; compound 9.46563 nM, series r1): 0.00642 and 0.008208
- Lanthascreen raw signal, sheet CDK12 (CDK12–cyclin K; compound 31.5521 nM, series r1): 0.007402 and 0.006928
- Lanthascreen raw signal, sheet CDK12 (CDK12–cyclin K; compound 99.3891 nM, series r1): 0.007817 and 0.006924
- Lanthascreen raw signal, sheet CDK12 (CDK12–cyclin K; compound 315.521 nM, series r1): 0.006025 and 0.005353
- Lanthascreen raw signal, sheet CDK12 (CDK12–cyclin K; compound 3155.21 nM, series r1): 0.005515 and 0.005262
- Lanthascreen raw signal, sheet CDK12 (CDK12–cyclin K; compound 10002 nM, series r1): 0.006527 and 0.0053

SMILES: O=C(CSc1nnc2c(n1)[nH]c1ccccc12)Nc1ccc(Cl)cn1 [dCeMM2]
- TR-FRET signal (CDK12–cyclin K and DDB1; compound concentration 0.468 nM): 0.3316 and 0.3176
- TR-FRET signal (CDK12–cyclin K and DDB1; compound concentration 2.16 nM): 0.3609 and 0.3684
- TR-FRET signal (CDK12–cyclin K and DDB1; compound concentration 3.6 nM): 0.446 and 0.4561
- TR-FRET signal (CDK12–cyclin K and DDB1; compound concentration 4.68 nM): 0.2526 and 0.2575
- TR-FRET signal (CDK12–cyclin K and DDB1; compound concentration 7.92001 nM): 0.6045 and 0.6093
- TR-FRET signal (CDK12–cyclin K and DDB1; compound concentration 15.84 nM): 0.8627 and 0.8782
- TR-FRET signal (CDK12–cyclin K and DDB1; compound concentration 21.6 nM): 0.6074 and 0.6249
- TR-FRET signal (CDK12–cyclin K and DDB1; compound concentration 30.96 nM): 1.396 and 1.344
- TR-FRET signal (CDK12–cyclin K and DDB1; compound concentration 36 nM): 1.231 and 1.287
- TR-FRET signal (CDK12–cyclin K and DDB1; compound concentration 62.6401 nM): 1.902 and 1.956
- TR-FRET signal (CDK12–cyclin K and DDB1; compound concentration 79.2001 nM): 2.008 and 2.099
- TR-FRET signal (CDK12–cyclin K and DDB1; compound concentration 125.28 nM): 2.531 and 2.559
- TR-FRET signal (CDK12–cyclin K and DDB1; compound concentration 158.4 nM): 2.698 and 2.725
- TR-FRET signal (CDK12–cyclin K and DDB1; compound concentration 244.8 nM): 3.133 and 3.085
- TR-FRET signal (CDK12–cyclin K and DDB1; compound concentration 309.6 nM): 3.151 and 3.239
- TR-FRET signal (CDK12–cyclin K and DDB1; compound concentration 626.401 nM): 3.549 and 3.629
- TR-FRET signal (CDK12–cyclin K and DDB1; compound concentration 993.601 nM): 3.858 and 3.701
- TR-FRET signal (CDK12–cyclin K and DDB1; compound concentration 1252.8 nM): 3.752 and 3.846
- TR-FRET signal (CDK12–cyclin K and DDB1; compound concentration 2001.6 nM): 3.973 and 3.947
- TR-FRET signal (CDK12–cyclin K and DDB1; compound concentration 2448 nM): 3.918 and 3.967
- TR-FRET signal (CDK12–cyclin K and DDB1; compound concentration 9936.01 nM): 3.896 and 3.914
- TR-FRET signal (CDK12–cyclin K and DDB1; compound concentration 20016 nM): 3.769 and 3.757
- EC50 (CDK12–cyclin K and DDB1; [1]): 0.083 ± 0.004 µM
- EC50 (CDK12–cyclin K and DDB1; sheet MOESM7, read-out: log TR-FRET EC50 (converted)): 0.0832 µM
- EC50 (CDK12–cyclin K and DDB1; [2]): 0.0832 µM
- IC50 (CDK12–cyclin K; Lanthascreen, average, Extended Data Fig. 8, read-out: CDK12 IC50): > 10000 nM
- IC50 (CDK12–cyclin K; [3]): > 10000 nM
- Lanthascreen raw signal, sheet CDK12 (CDK12–cyclin K; compound 0.038147 nM, series r13): 0.0112 and 0.01094
- Lanthascreen raw signal, sheet CDK12 (CDK12–cyclin K; compound 0.152588 nM, series r13): 0.01131 and 0.01094
- Lanthascreen raw signal, sheet CDK12 (CDK12–cyclin K; compound 0.610352 nM, series r13): 0.0113 and 0.01155
- Lanthascreen raw signal, sheet CDK12 (CDK12–cyclin K; compound 1.02544 nM, series r1): 0.009008 and 0.01048
- Lanthascreen raw signal, sheet CDK12 (CDK12–cyclin K; compound 3.15521 nM, series r1): 0.01033 and 0.00928
- Lanthascreen raw signal, sheet CDK12 (CDK12–cyclin K; compound 9.46563 nM, series r1): 0.007656 and 0.01097
- Lanthascreen raw signal, sheet CDK12 (CDK12–cyclin K; compound 9.76563 nM, series r13): 0.01084 and 0.01176
- Lanthascreen raw signal, sheet CDK12 (CDK12–cyclin K; compound 31.5521 nM, series r1): 0.008129 and 0.008647
- Lanthascreen raw signal, sheet CDK12 (CDK12–cyclin K; compound 39.0625 nM, series r13): 0.01123 and 0.01099
- Lanthascreen raw signal, sheet CDK12 (CDK12–cyclin K; compound 99.3891 nM, series r1): 0.008644 and 0.009455
- Lanthascreen raw signal, sheet CDK12 (CDK12–cyclin K; compound 156.25 nM, series r13): 0.01158 and 0.0119
- Lanthascreen raw signal, sheet CDK12 (CDK12–cyclin K; compound 315.521 nM, series r1): 0.008456 and 0.007711
- Lanthascreen raw signal, sheet CDK12 (CDK12–cyclin K; compound 625 nM, series r13): 0.01045 and 0.01083
- Lanthascreen raw signal, sheet CDK12 (CDK12–cyclin K; compound 2500 nM, series r13): 0.01145 and 0.01174
- Lanthascreen raw signal, sheet CDK12 (CDK12–cyclin K; compound 3155.21 nM, series r1): 0.008398 and 0.008586
- Lanthascreen raw signal, sheet CDK12 (CDK12–cyclin K; compound 10000 nM, series r13): 0.01298 and 0.0125
- Lanthascreen raw signal, sheet CDK12 (CDK12–cyclin K; compound 10002 nM, series r1): 0.01123 and 0.01167
